Measurements from PubChem BioAssay AID330 (DTP/NCI, 2004).
“And” between values parts separate entries of the source, which are not always exact repeats. Equal values may be shown once. Inconclusive results and toxic doses are left out.

Test system: P388 leukemia ip, CD2F1 mice, survival T/C
Assay: NCI In Vivo Anticancer Drug Screen. Data for tumor model P388 Leukemia (intraperitoneal) in CD2F1 (CDF1) mice
Conditions: endpoint: median survival time, higher = longer survival
Summary of the method: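 Mice carrying the transplanted tumor received test compound or vehicle. Survival was recorded in each group, and the value is the treated-group measurement divided by that of the vehicle-treated control group.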

[1] = dose: 60.0 mg/kg/injection, schedule: Q01DX005 (ip), vehicle: saline with Tween-80
[2] = dose: 120.0 mg/kg/injection, schedule: Q01DX005 (ip), vehicle: saline with Tween-80
[3] = dose: 240.0 mg/kg/injection, schedule: Q01DX005 (ip), vehicle: saline with Tween-80
[4] = dose: 100.0 mg/kg/injection, schedule: Q01DX001 (ip), vehicle: Klucel (hydroxypropylcellulose) (HPC)
[5] = dose: 200.0 mg/kg/injection, schedule: Q01DX001 (ip), vehicle: Klucel (hydroxypropylcellulose) (HPC)
[6] = dose: 400.0 mg/kg/injection, schedule: Q01DX001 (ip), vehicle: Klucel (hydroxypropylcellulose) (HPC)

For CCOc1c(N=Nc2cccc([N+](=O)[O-])c2)c(C)nn1C(=S)S, the T/C (dose: 60.0 mg/kg/injection, schedule: Q01DX005 (ip), vehicle: Klucel + Tween-80) was 97 % of control, the T/C (dose: 120.0 mg/kg/injection, schedule: Q01DX005 (ip), vehicle: Klucel + Tween-80) was 97 % of control and the T/C (dose: 240.0 mg/kg/injection, schedule: Q01DX005 (ip), vehicle: Klucel + Tween-80) was 98 % of control.
With CN(C)C(=O)c1ccccc1SC(=S)NCc1ccccc1 the T/C (dose: 60.0 mg/kg/injection, schedule: Q01DX005 (ip), vehicle: Klucel (hydroxypropylcellulose) (HPC)) was 102 % of control, the T/C (dose: 120.0 mg/kg/injection, schedule: Q01DX005 (ip), vehicle: Klucel (hydroxypropylcellulose) (HPC)) was 102 % of control and the T/C (dose: 240.0 mg/kg/injection, schedule: Q01DX005 (ip), vehicle: Klucel (hydroxypropylcellulose) (HPC)) was 102 % of control.
CCN(CC)CC(O)c1c(OC)ccc2ccccc12 (stereo unspecified) was tested, and the T/C (dose: 12.5 mg/kg/injection, schedule: Q01DX005 (ip), vehicle: saline) was 96 % of control, the T/C (dose: 25.0 mg/kg/injection, schedule: Q01DX005 (ip), vehicle: saline) was 96 % of control and the T/C (dose: 50.0 mg/kg/injection, schedule: Q01DX005 (ip), vehicle: saline) was 104 % of control and 97 % of control.
O=C(O)c1c(Br)c(Br)c(Br)c(Br)c1-c1c2ccc(=O)cc-2oc2cc(O)ccc12 was tested, and the T/C [1] was 101 % of control, the T/C [2] was 105 % of control and the T/C [3] was 101 % of control.
In the case of OCCN1CCOCC1, the T/C (dose: 100.0 mg/kg/injection, schedule: Q04DX003 (ip), vehicle: saline with Tween-80) is reported as 95 % of control, the T/C (dose: 200.0 mg/kg/injection, schedule: Q04DX003 (ip), vehicle: saline with Tween-80) is reported as 95 % of control and the T/C (dose: 400.0 mg/kg/injection, schedule: Q04DX003 (ip), vehicle: saline with Tween-80) is reported as 95 % of control.
CNCC(=O)NC(CO)C(=O)NC(CO)C(=O)NC1C(C(N)=O)OC(n2ccc(N)nc2=O)C(O)C1O (stereo unspecified) was tested, and the T/C (dose: 0.1 mg/kg/injection, schedule: Q01DX009 (ip), vehicle: water) was 101 % of control, the T/C (dose: 0.2 mg/kg/injection, schedule: Q01DX009 (ip), vehicle: water) was 100 % of control and the T/C (dose: 0.4 mg/kg/injection, schedule: Q01DX009 (ip), vehicle: water) was 117 % of control. For the same molecule, the T/C (dose: 0.8 mg/kg/injection, schedule: Q01DX009 (ip), vehicle: water) was 95 % of control.
With O=C(Nc1ccc(Cl)cc1)Nc1nnc(-c2ccc(Cl)cc2Cl)o1 the T/C [1] was 91 % of control, the T/C [2] was 86 % of control and the T/C [3] was 97 % of control.
In the case of O=C(O)C(O)C(O)C(O)C(=O)O (stereo unspecified), the T/C (dose: 50.0 mg/kg/injection, schedule: Q01DX009 (ip), vehicle: saline) is reported as 101 % of control, the T/C (dose: 100.0 mg/kg/injection, schedule: Q01DX009 (ip), vehicle: saline) is reported as 107 % of control and the T/C (dose: 200.0 mg/kg/injection, schedule: Q01DX009 (ip), vehicle: saline) is reported as 91 % of control.
In the case of O=C1OC(c2ccccc2)(c2ccccc2)C2CC12c1ccccc1 (stereo unspecified), the T/C [4] is reported as 95 % of control, the T/C [5] is reported as 95 % of control and the T/C [6] is reported as 88 % of control.
COC1C=CCCC1 (stereo unspecified) was tested, and the T/C [4] was 108 % of control, the T/C [5] was 117 % of control and the T/C [6] was 106 % of control.
CN1CCN(c2c(C(=O)Nc3ccc([N+](=O)[O-])cc3)cc([N+](=O)[O-])cc2[N+](=O)[O-])CC1 was tested, and the T/C [1] was 92 % of control and the T/C [2] was 90 % of control.
For c1cc(-c2nn[nH]n2)ccc1NNc1ccc(-c2nn[nH]n2)cc1, the T/C (dose: 50.0 mg/kg/injection, schedule: Q01DX001 (ip), vehicle: Klucel (hydroxypropylcellulose) (HPC)) was 101 % of control, the T/C [4] was 105 % of control and the T/C [5] was 98 % of control.
With N[C@H](C(=O)O)[C@@H]1CC(S(=O)(=O)c2ccccc2)=NO1 the T/C (dose: 12.5 mg/kg/injection, schedule: Q01DX005 (ip), vehicle: distilled water + Tween-80) was 102 % of control and the T/C (dose: 25.0 mg/kg/injection, schedule: Q01DX005 (ip), vehicle: distilled water + Tween-80) was 102 % of control.
In the case of O=C1OC2CC13Cc1ccccc1C3(C(=O)O)CC2I (stereo unspecified), the T/C [1] is reported as 104 % of control, the T/C [2] is reported as 106 % of control and the T/C [3] is reported as 100 % of control.
